According to patent US20090197970A1, “CRYSTALLINE FORM OF CINACALCET” (Sandoz AG, priority 2006, published 2009):
Each block holds one compound with its values, some of them ahead of it.

Tests used:
Format in all cases: physicochemical
[1] = Flowability and handling of the crystals; conditions: crystals in the form of plates
[2] = Storage stability of the crystalline form; conditions: stored at ambient temperature
[3] = Temperature range of stability of the polymorph (DSC discussion); conditions: form only stable above this temperature
Protocol: DSC curves were recorded with a DSC 7 system (Perkin Elmer, Norwalk, Conn., USA) using the Pyris 2.0. software. Samples of approximately 2 mg were weighted into A1 pans with perforated cover. Dry nitrogen was used as purge gas. X-axis is the temperature in ° C., Y-axis gives dH/dT (endo up).
Form I is a crystalline form which melts at about 180° C. and is only stable at temperatures above 130° C.

- flowability characteristics [1]: favourable flowability characteristics
SMILES: C[C@@H](NCCCc1cccc(C(F)(F)F)c1)c1cccc2ccccc12.Cl

- stable when stored [2]: ≥ 3 months
SMILES: C[C@@H](NCCCc1cccc(C(F)(F)F)c1)c1cccc2ccccc12.Cl [Form III of Cinacalcet hydrochloride]

- temperature at which the form is stable [3]: above 130 °C
SMILES: C[C@@H](NCCCc1cccc(C(F)(F)F)c1)c1cccc2ccccc12.Cl [Form I]
